Measured values from patent US7744927B2, “Methods of promoting hematopoietic and mesenchymal cell proliferation and differentiation” (University of Southern California, priority 1997, dated 2010).

Columns and labels:
rabbit corneal eye = conditions: in vivo; cited from earlier work
wound tissue = conditions: application to wound tissue; cited from earlier work
[1] = tested on: cultured cells that are involved in wound repair; conditions: cited from earlier work
rat MSC = experiment: Rat mesenchymal stem cell proliferation in bone marrow culture; type: cell-based, Sprague Dawley rats; conditions: 1 to 100 μg/ml, in presence of serum
Procedure: These studies were conducted to determine the effect that AII would have on the proliferation of MSC. Bone marrow cells were harvested from the femur and tibia of female Sprague Dawley rats by flushing the bones with Dulbecco's Minimal Essential Medium-High Glucose (“DMEM-HG”) with a syringe and an 18 gauge needle. These cells were cultured in 24 well plates at 5×10^3 cells/mm^2 in DMEM-HG containing selected lots of fetal calf serum (FCS) and antibiotics (complete medium) at 37° C. incubator containing 5% CO2 in air. Twenty-four hours after the initiation of the cultures the medium and nonadherent cells were aspirated and fresh medium was added. To each of these several wells, complete medium with (1 to 100 μg/ml) or without AII was added. The migration of cells from the clones and their proliferation was followed by microscopic examination. Every 4 days the old medium was removed and fresh medium was added to the cultures. These studies were conducted to determine the effect that inclusion of AII analogues and fragments in the cell culture of MSC would have on the proliferation of these cells. Bone marrow cells were harvested from the femur and tibia of female Sprague Dawley rats by flushing the bones with Dulbecco's Minimal Essential Medium-High Glucose (“DMEM-HG”) with a syringe and an 18 gauge needle. […]

[2] = tested on: human peripheral blood mononuclear cells (PBMC); experiment: Respiratory burst (hydrogen peroxide generation), human PBMC; type: cell-based; conditions: alone and in response to PMA 10 ng/ml; 4 hours exposure
Procedure: The respiratory burst of leukocytes (macrophages and polymorphonuclear neutrophils) is one component of the mediator system used to kill bacteria. As with phagocytosis, the level of this respiratory burst activity in resident macrophages is low. […] Studies were conducted to assess the effect of in vitro exposure of murine or rat peritoneal macrophages and human peripheral blood mononuclear cells (PBMC) to various concentrations of AII on the capacity to generate hydrogen peroxide via the respiratory burst system. For the human studies, five different donors were examined.
The murine or rat peritoneal cells were harvested by lavage with 5-15 ml of cold PBS with 0.5% bovine serum albumin. The human PBMC were harvested by venipuncture from normal human volunteers and isolated from peripheral blood by Ficoll Hypaque density centrifugation. After isolation, the cells were resuspended at 1×10^6 cells/ml and placed at 100 μl per well into 96 well plates. The cells were incubated with various concentrations of AII or AII analogues for 4 hours at 37° C. The cells were then preloaded with a fluorescent probe for hydrogen peroxide, 2,7 dichlorofluorescein acetate, which is nonfluorescent in the absence of hydrogen peroxide. Fifteen minutes later, 10 ng/ml of phorbol myristate acetate (+PMA) or PBS (−PMA) was added to stimulate the production of hydrogen peroxide. One hour after stimulation the level of fluorescence produced was measured on a Cytofluor 2350 multiwell fluorometer.

murine HPC = experiment: Murine HPC colony formation in the absence of colony stimulating factors; type: cell-based, C57B1/6 mice; conditions: 14 days
Procedure: HPC were harvested from C57B1/6 mice by immunomagnetic affinity chromatography and placed in semi-solid cultures with optimal growth medium in the absence of colony stimulating factors. At various times after initiation of culture, the formation of colonies and the size of the colonies (number of cells/colony) was assessed microscopically.
Female C57B1/6 mice were purchased from Simonson and used as a source of bone marrow cells in this study. The bone marrow was harvested from the femur and tibia of mice by flushing with phosphate buffered saline (PBS), pH 7.4, containing 2% fetal bovine serum (FBS) with a 21-gauge needle. The eluant from the flushing was centrifuged and the pellet was resuspended at 4×10^7 nucleated cells/ml in PBS containing PBS containing 2% FBS and 5% normal rat serum.
The reagents for immunomagnetic labeling were purchased from Stem Cell Technologies, Inc. (Vancouver, BC). Biotin-labeled monoclonal antibodies to the following murine lineage-specific cell surface antigens were included in a cocktail for HPC enrichment and used according to the manufacturer's instructions: CD5 (Ly-1), CD45-R (B220), CD11b (Mac-1), Myeloid Differentiation Antigen (Gr-1) and Erythroid Cells (TER 119) Ten μl of antibody cocktail was added to the bone marrow, mixed and allowed to incubate at 4° C. for 15 minutes. […]

Asp-Arg-Val-Tyr-Ile-His-Pro-Phe [AII, known pressor agent, commercially available]
angiogenic activity (rabbit corneal eye): angiogenic | rate of wound healing (wound tissue): significantly increases the rate of wound healing | mitogenesis and chemotaxis [1]: increases mitogenesis and chemotaxis | number of sites from which the MSC were migrating (CFU) (rat MSC): significantly increased | size (number of cells) of the colonies formed (rat MSC): significantly increased | ability to generate hydrogen peroxide (respiratory burst) [2]: increased the ability of leukocytes to generate hydrogen peroxide | HPC colony size / HPC proliferation (murine HPC): HPC colony size increases proportionately
